In patent US11046745B2, “Peptide mimotopes of the CD3 T-cell co-receptor epsilon chain and uses thereof” (BioNTech SE, priority 2015, dated 2021):
Positions of bridges follow the written chain, without caps; N, C: chain ends. Residues, ends and D or L forms follow the SMILES beside them. No end group written: not given here. *: point of attachment. Biotin = O=C1N[C@H]2[C@H](CS[C@H]2CCCCC(=O)*)N1

Legend:
[1] = system: TR66 antibody (CD3ε specific antibody, clone TR66); experiment: Binding analysis using biolayer interferometry (BLI), Octet Red, biotinylated peptides on streptavidin sensors; conditions: for Yes/no binding, BLI: 500 nM TR66 antibody, one concentration; for Binding of TR66 in detailed BLI analysis (FIG. 5): TR66 1.5625 to 100 nM, dissociation constant could not be fitted
Description: FIG. 5. Comparative binding analysis of matured TR66 mimotopes aCD3-04-002 and aCD3-04-013 using biolayer interferometry (BLI) on an Octet Red system (fortéBIO). Biotinylated peptides were immobilized onto streptavidin (SA) sensors. After blocking with 1× blocking buffer and biocytin association and dissociaten rates of TR66 binding were recorded over a period of 2400 sec respectively. The antibody was used in a range of 1.5625 to 100 nM (1.5625, 3.125, 6.25, 12.5, 25, 50, 100 nM) for each analyzed peptide.
Binding analysis was performed using streptavidin (SA) sensors on an Octet Red system (fortéBIO). 5 μg/ml of biotinylated peptides were used for loading (200 μl per sensor). […] Remained biotin binding sites on coated streptavidin sensors were blocked using 100 μg/ml biocytin (Sigma-Aldrich) for 5 minutes. For binding mode analysis of different peptides 500 nM TR66 antibody was used in the association step. For detailed analysis the antibody was used in a range of 1.5625 to 100 nM (1.5625, 3.125, 6.25, 12.5, 25, 50, 100 nM) for each analyzed peptide. The following program was used: • Baseline: 1000 rpm for 180 sec. • Load: 1000 rpm for 900 sec. • Baseline: 1000 rpm for 180 sec. • Blocking: 1000 rpm for 300 sec. • Association: 1000 rpm for 1200-2400 sec. • Dissociation: 1000 rpm for 1200-2400 sec.
The peptides displaying the highest binding affinities from the peptide microarray experiments were synthesized by standard Fmoc-based solid-phase-synthesis protocols and purified (HPLC purity: >80%). The binding characteristics of each peptide were determined. In the first instance all peptides were analysed via biolayer interferometry (BLI) to get a first impression whether the respective variant has a significant binding property at all (yes/no binding, Table 2). At his point, only one TR66 concentration (500 nM) was tested. Except variants aCD3-04-010 and aCD3-04-012 all peptides show a measurable binding activity.

[2] = target: TR66 antibody (CD3ε specific antibody, clone TR66); experiment: Binding analysis using peptide ELISA, biotinylated peptides on streptavidin plates, TR66; conditions: TR66; mean of at least two individual measurements; two-site saturation binding model; read-out: Apparent KD, ELISA
Description: FIG. 3. Binding analysis of phage derived variants using a peptide based ELISA. Biotinylated peptides were immobilized on streptavidin plates (Nunc) in a concentration of 0.75 μg/ml. After blocking 30 μg/ml TR66 or an unrelated antibody (control ab) were added and incubated for 1 h at 37° C. Binding was detected with an alkaline phosphatase conjugated goat anti-human IgG antibody (Sigma) and the chromogenic substrate PNPP (para-nitrophenyl phosphate). All reactions were performed as duplicates. SD values are presented as error bars.
For the detection of TR66 or OKT3 (Bio-X-Cell), the CD3 mimicking peptides were immobilized on streptavidin plates (Nunc) in a concentration of 0.75 μg/ml in PBS buffer for 1 hour at 37° C. Subsequently, the plate was washed three times with washing buffer (0.01% Tween-20 in PBS buffer) before it was blocked with 3% BSA in PBS overnight at 4° C. To detect TR66 or OKT3, the blocked plate was washed again three times with washing buffer followed by the addition of TR66 or OKT3 and incubation for 30 min at 37° C. After another washing step, it was incubated with an alkaline phosphatase conjugated Goat anti-human or anti-mouse IgG, Fe antibody (Jackson Immuno Research) for additional 30 min at 37° C. Finally, the plate was washed again before being incubated with 1.5 mg/ml of the substrate PNPP (para-nitrophenyl phosphate) in appropriate substrate buffer (1 M Diethanolamine, 0.05 mM MgCl2, 0.01% sodium azide, pH 9.8) for 30 min at RT in the dark. 3 M KOH was used to stop the enzymatic reaction. Absorbance was measured with a microplate reader (Infinite M200, Tecan). For dual wavelength analysis, 405 nm was chosen as measurement wavelength and 492 nm as reference wavelength. Absorbance values were calculated by subtraction of the measured values for the reference wavelength and for the measurement wavelength. Calculation of apparent KD values was done by fitting the data with Sigma Plot 10 using a two-site saturation binding model.

[3] = system: Muromonab-CD3 (Orthoclone OKT3), CD3-specific monoclonal antibody; experiment: Peptide ELISA for cross-reactivity to OKT3; type: binding, murine
Description: FIG. 6. Comparative binding analysis of maturated TR66 mimotope aCD3-04-013 to approved antibody Muromanab-CD3 (Orthoclone OKT3®). Biotinylated peptides were immobilized on streptavidin plates (Nunc). After blocking different concentrations (0, 156, 312, 625, 1250, 5000 and 10000 ng/ml) of TR66, OKT3 or an unrelated antibody (control ab) were added and incubated for 1 h at 37° C. Binding was detected with an alkaline phosphatase conjugated goat anti-human IgG antibody (Sigma) and the chromogenic substrate PNPP (para-nitrophenyl phosphate). All reactions were performed as duplicates. SD values are presented as error bars.
For the detection of TR66 or OKT3 (Bio-X-Cell), the CD3 mimicking peptides were immobilized on streptavidin plates (Nunc) in a concentration of 0.75 μg/ml in PBS buffer for 1 hour at 37° C. Subsequently, the plate was washed three times with washing buffer (0.01% Tween-20 in PBS buffer) before it was blocked with 3% BSA in PBS overnight at 4° C. To detect TR66 or OKT3, the blocked plate was washed again three times with washing buffer followed by the addition of TR66 or OKT3 and incubation for 30 min at 37° C. […] Absorbance was measured with a microplate reader (Infinite M200, Tecan). […] Absorbance values were calculated by subtraction of the measured values for the reference wavelength and for the measurement wavelength. […]

Compound	Yes/no binding, BLI [1]	Binding of TR66 in detailed BLI analysis (FIG. 5) [1]	Kd [2] [nM]	Binding of OKT3 to mimotope, ELISA titration (FIG. 6) ([3]; OKT3 titration 0-10000 ng/ml)	Affinity of OKT3 binding compared to TR66 binding, ELISA ([3]; different detection antibodies for TR66 and OKT3)
C[C@H](N)C(=O)N[C@H]1CSSC[C@@H](C(=O)NCC(=O)NCC(=O)NCC(=O)N[C@@H](CO)C(=O)N[C@@H](CCCCNC(=O)CCCC[C@@H]2SC[C@@H]3NC(=O)N[C@@H]32)C(=O)O)NC(=O)[C@H](CCC(N)=O)NC(=O)[C@@H]2CCCN2C(=O)[C@H](CC(=O)O)NC(=O)[C@H](CC(=O)O)NC(=O)[C@@H]2CCCN2C(=O)[C@H](CCCNC(=N)N)NC(=O)[C@H]([C@@H](C)O)NC1=O [aCD3-04-002, ACTRPDDPQC-GGGS-K(Bio)] (H-ACTRPDDPQCGGGSK(Biotin)-OH; disulfide 2-10)	Yes	concentration-dependent binding	78	–	–
C[C@@H](O)[C@@H]1NC(=O)[C@@H](NC(=O)[C@@H](N)Cc2c[nH]c3ccccc23)CSSC[C@@H](C(=O)NCC(=O)NCC(=O)NCC(=O)N[C@@H](CO)C(=O)N[C@@H](CCCCNC(=O)CCCC[C@@H]2SC[C@@H]3NC(=O)N[C@@H]32)C(=O)O)NC(=O)[C@H](CCC(N)=O)NC(=O)[C@@H]2CCCN2C(=O)[C@H](CC(=O)O)NC(=O)CNC(=O)[C@@H]2CCCN2C(=O)[C@H](CCCNC(=N)N)NC1=O [aCD3-04-006, WCTRPGDPQC-GGGS-K(Bio)] (H-WCTRPGDPQCGGGSK(Biotin)-OH; disulfide 2-10)	Yes	–	226	–	–
C[C@H](N)C(=O)N[C@H]1CSSC[C@@H](C(=O)NCC(=O)NCC(=O)NCC(=O)N[C@@H](CO)C(=O)N[C@@H](CCCCNC(=O)CCCC[C@@H]2SC[C@@H]3NC(=O)N[C@@H]32)C(=O)O)NC(=O)[C@H](CCC(N)=O)NC(=O)[C@@H]2CCCN2C(=O)[C@H](CC(=O)O)NC(=O)[C@H](CCC(=O)O)NC(=O)[C@@H]2CCCN2C(=O)[C@H](CCCNC(=N)N)NC(=O)[C@H]([C@@H](C)O)NC1=O [aCD3-04-007, ACTRPEDPQC-GGGS-K(Bio)] (H-ACTRPEDPQCGGGSK(Biotin)-OH; disulfide 2-10)	Yes	–	299	–	–
C[C@H](N)C(=O)N[C@H]1CSSC[C@@H](C(=O)NCC(=O)NCC(=O)NCC(=O)N[C@@H](CO)C(=O)N[C@@H](CCCCNC(=O)CCCC[C@@H]2SC[C@@H]3NC(=O)N[C@@H]32)C(=O)O)NC(=O)[C@H](C)NC(=O)[C@@H]2CCCN2C(=O)[C@H](CC(=O)O)NC(=O)CNC(=O)[C@@H]2CCCN2C(=O)[C@H](CCCNC(=N)N)NC(=O)[C@H]([C@@H](C)O)NC1=O [aCD3-04-008, ACTRPGDPAC-GGGS-K(Bio)] (H-ACTRPGDPACGGGSK(Biotin)-OH; disulfide 2-10)	Yes	–	164	–	–
C[C@H](N)C(=O)N[C@H]1CSSC[C@@H](C(=O)NCC(=O)NCC(=O)NCC(=O)N[C@@H](CO)C(=O)N[C@@H](CCCCNC(=O)CCCC[C@@H]2SC[C@@H]3NC(=O)N[C@@H]32)C(=O)O)NC(=O)[C@H](Cc2ccc(O)cc2)NC(=O)[C@@H]2CCCN2C(=O)[C@H](CC(=O)O)NC(=O)CNC(=O)[C@@H]2CCCN2C(=O)[C@H](CCCNC(=N)N)NC(=O)[C@H]([C@@H](C)O)NC1=O [aCD3-04-009, ACTRPGDPYC-GGGS-K(Bio)] (H-ACTRPGDPYCGGGSK(Biotin)-OH; disulfide 2-10)	Yes	–	167	–	–
C[C@H](N)C(=O)N[C@H]1CSSC[C@@H](C(=O)NCC(=O)NCC(=O)NCC(=O)N[C@@H](CO)C(=O)N[C@@H](CCCCNC(=O)CCCC[C@@H]2SC[C@@H]3NC(=O)N[C@@H]32)C(=O)O)NC(=O)[C@H](CCC(=O)O)NC(=O)[C@@H]2CCCN2C(=O)[C@H](CC(=O)O)NC(=O)[C@H](CC(=O)O)NC(=O)[C@@H]2CCCN2C(=O)[C@H](CCCNC(=N)N)NC(=O)[C@H]([C@@H](C)O)NC1=O [aCD3-04-013, ACTRPDDPEC-GGGS-K(Bio)] (H-ACTRPDDPECGGGSK(Biotin)-OH; disulfide 2-10)	Yes	concentration-dependent binding	4	specific binding	slightly lower affinity
C[C@H](N)C(=O)N[C@H]1CSSC[C@@H](C(=O)NCC(=O)NCC(=O)NCC(=O)N[C@@H](CO)C(=O)N[C@@H](CCCCNC(=O)CCCC[C@@H]2SC[C@@H]3NC(=O)N[C@@H]32)C(=O)O)NC(=O)[C@H](Cc2c[nH]c3ccccc23)NC(=O)[C@@H]2CCCN2C(=O)[C@H](CC(=O)O)NC(=O)[C@H](CC(=O)O)NC(=O)[C@@H]2CCCN2C(=O)[C@H](CCCNC(=N)N)NC(=O)[C@H]([C@@H](C)O)NC1=O [aCD3-04-014, ACTRPDDPWC-GGGS-K(Bio)] (H-ACTRPDDPWCGGGSK(Biotin)-OH; disulfide 2-10)	Yes	–	111	–	–
ACTR(NMI)GDPQC-GGGS-K(Bio) (ACTRLGDPQCGGGSK; not fully specified; N-methylisoleucine; GGGS linker; biotinylated lysine; MOD_RES (5)..(5) N-methylisoleucine; MOD_RES (15)..(15) K(Bio)) [aCD3-04-010]	No	–	–	–	–
ACTRPWDPQC-GGGS-K(Bio) (ACTRPWDPQCGGGSK(Biotin); disulfide 2-10 (inferred)) [aCD3-04-012]	No	–	–	–	–
